Patent publication US9410152B2, “Use of microrna molecules to influence skin pigmentation” (CHANEL PARFUMS BEAUTE, priority 2011, dated 2016)
Entries after “also recorded” stand apart in the source; their conditions may differ.

How the values were obtained:
Type in all cases: cell-based, human
[1] = test system: mRNA MITF-M; test: qRT-PCR mRNA expression of MITF-M; details: MNT-1 cells, 50 nM mimetic, day 12, relative to cel-miR-239b, ΔΔCt
Procedure: (§1) 4×10^5 MNT-1 cells were seeded per well in a 6-well plate (#353046, Falcon) on day-1. On day 0, the cells were transfected with 50 nM of mimetic of the miRNAs (hsa-mir-137 # C-300604-07-005, hsa-mir-7 # C-300547-05-0005, hsa-mir-330-5p # C-301082-01-0005, negative control # NC-002000-01-05, Dharmacon), using 5 μL of Lipofectamine 2000 (#1668-019, Invitrogen). On day 1, the medium was changed. On day 3, the cells were trypsinized and seeded at 4×10^5 cells per well. On day 4, the cells were transfected again with 50 nM of mimetic of the miRNAs (see day 0). On day 5, the medium was changed. On day 7, the cells were trypsinized and seeded at 4×10^5 cells per well. On day 8, the cells were transfected with 50 nM of mimetic of the miRNAs (see day 0). On day 9, the medium was changed. On day 10, the cells were trypsinized and divided into two (from one by six wells to two by six wells). On day 12, one six-well plate was used for lysis of the RNA and the other for lysis of the proteins. As positive control of depigmentation, MNT-1 cells were incubated with 3.5 mM of kojic acid (Sigma K3125-5G) for 12 days. The cells were distributed as described and the kojic acid was renewed with the medium every 4 days. The percentage inhibition of the kojic acid is of the order of 10%. 700 μL of Qiazol lysis buffer (Qiagen) was added per well of a six-well dish after washing the cells twice with PBS. The total RNA was isolated using the miRNeasy Mini kit (Qiagen) according to the manufacturer's protocol. The total RNA was eluted in 30 μl of water without RNAse. The concentration of RNA was measured using the NanoVue spectrophotometer (GE Healthcare). 1 μg of total RNA was reverse-transcribed using the MLV RT-Enzyme system (Invitrogen) in 60 μL of reaction to produce the corresponding cDNA. […] The concentrations of primers and the sequences are given in Table 5 below: The relative quantity was evaluated using the ΔΔCt comparative method. Briefly, this method compares the quantity of expression of the target gene relative to an endogenous control TBP, within a sample for normalizing the expression. […]

[2] = test system: mRNA MLANA; test: qRT-PCR mRNA expression of MLANA; details: MNT-1 cells, 50 nM mimetic, day 12, relative to cel-miR-239b, ΔΔCt
Procedure: as §1

[3] = test system: mRNA TYRP1; test: qRT-PCR mRNA expression of TYRP1; details: MNT-1 cells, 50 nM mimetic, day 12, relative to cel-miR-239b, ΔΔCt
Procedure: as §1

[4] = test system: MITF; test: Western blot of MITF protein; details: MNT-1 cells, 50 nM mimetic, day 12
Procedure: (§2) 4×10^5 MNT-1 cells were seeded per well in a 6-well plate (#353046, Falcon) on day-1. On day 0, the cells were transfected with 50 nM of mimetic of the miRNAs (hsa-mir-137 # C-300604-07-005, hsa-mir-7 # C-300547-05-0005, hsa-mir-330-5p # C-301082-01-0005, negative control # NC-002000-01-05, Dharmacon), using 5 μL of Lipofectamine 2000 (#1668-019, Invitrogen). On day 1, the medium was changed. On day 3, the cells were trypsinized and seeded at 4×10^5 cells per well. On day 4, the cells were transfected again with 50 nM of mimetic of the miRNAs (see day 0). On day 5, the medium was changed. On day 7, the cells were trypsinized and seeded at 4×10^5 cells per well. On day 8, the cells were transfected with 50 nM of mimetic of the miRNAs (see day 0). On day 9, the medium was changed. On day 10, the cells were trypsinized and divided into two (from one by six wells to two by six wells). On day 12, one six-well plate was used for lysis of the RNA and the other for lysis of the proteins. As positive control of depigmentation, MNT-1 cells were incubated with 3.5 mM of kojic acid (Sigma K3125-5G) for 12 days. The cells were distributed as described and the kojic acid was renewed with the medium every 4 days. The percentage inhibition of the kojic acid is of the order of 10%. […] The concentration of proteins was determined with the BCA Protein Assay (ThermoFisher). […]

[5] = test system: TYR proteins; test: Western blot of TYR protein; details: MNT-1 cells, 50 nM mimetic, day 12
Procedure: as §2

Substance: hsa-miR-137: mimetic of miRNA hsa-mir-137 (Dharmacon C-300604-07-005); mature sequence SEQ ID NO: 3 (UUAUUGCUUAAGAAUACGCGUAG; commercial mimic, chemistry not given here; listed as Homo sapiens)
- levels of mRNA MITF-M [1]: significantly reduced
- levels of mRNA MITF-M ([1]; listed as miR-137): considerably reduced
- levels of mRNA MLANA [2]: significantly reduced
- levels of mRNA MLANA ([2]; listed as miR-137): considerably reduced
- levels of mRNA TYRP1 [3]: significantly reduced
- levels of mRNA TYRP1 ([3]; listed as miR-137): considerably reduced
- level of protein MITF (Western blot) [4]: eliminates

Substance: hsa-miR-7: mimetic of miRNA hsa-mir-7 (Dharmacon C-300547-05-0005); mature hsa-miR-7-5p sequence SEQ ID NO: 2 (UGGAAGACUAGUGAUUUUGUUGU; commercial mimic, chemistry not given here; listed as Homo sapiens)
- levels of mRNA MITF-M ([1]; listed as miR-7): appears to reduce; also recorded: slightly reduced
- levels of mRNA MLANA ([2]; listed as miR-7): appears to reduce; also recorded: slightly reduced
- levels of mRNA TYRP1 ([3]; listed as miR-7): appears to reduce; also recorded: slightly reduced
- level of protein MITF (Western blot) [4]: decreases
- content of TYR proteins (Western blot) [5]: decreases

Substance: hsa-miR-330-5p: mimetic of miRNA hsa-mir-330-5p (Dharmacon C-301082-01-0005); mature sequence 5'-UCUCUGGGCCUGUGUCUUAGGC-3' (SEQ ID NO: 1) (UCUCUGGGCCUGUGUCUUAGGC; mimic duplex, passenger strand not given here; listed as Homo sapiens)
- content of TYR proteins (Western blot) [5]: decreased
